Measurements: patent EP0390135A1, “Pyrroloquinoline derivatives, antimicrobial agents using the same and process for preparing the same” (OTSUKA PHARMACEUTICAL CO., LTD., priority 1989, dated 1990)
In brackets after ≈: the same amount, converted by molar mass. Structures can show the parent of a compound that is named as a salt. Where two headings read alike, the source gives them in different places.

Columns and labels:
[1] = Ratio of dissolution to water (water solubility)
A.calcoaceticus Ac-54 = assay: MIC by agar plate dilution method; format: cell-based
Experimental: (§1) In order to investigate the in vitro activity of the under-mentioned compounds against various bacteria, the minimal inhibitory concentration (MIC, µg/mℓ) values were determined by the agar plate dilution method (see Chemotherapy, 22, 1126-1128 (1974)]. The results are shown in Table 1.

E.coli NIHJ JC-2 = assay: MIC by agar plate dilution method; format: cell-based
Experimental: as §1

E.facalis ATCC-21212 = assay: MIC by agar plate dilution method; format: cell-based; conditions: in vitro
Experimental: as §1

K.pneumoniae NCTC-9632 = assay: MIC by agar plate dilution method; format: cell-based
Experimental: as §1

M.morganii IID Kono = assay: MIC by agar plate dilution method; format: cell-based; conditions: in vitro
Experimental: as §1

P.aeruginosa ATCC-10145 = assay: MIC by agar plate dilution method; format: cell-based
Experimental: as §1

P.aeruginosa E-2 = assay: MIC by agar plate dilution method; format: cell-based
Experimental: as §1

P.mirabilis ATCC-29906 = assay: MIC by agar plate dilution method; format: cell-based
Experimental: as §1

S.aureus FDA209P = assay: MIC by agar plate dilution method; format: cell-based; conditions: in vitro
Experimental: as §1

S.marcoscons IFO-12648 = assay: MIC by agar plate dilution method; format: cell-based; conditions: in vitro
Experimental: as §1

physchem = conditions: water, Ratio of dissolution to water
[2] = Ratio of dissolution to water, at 20 °C
[3] = Acinetobacter calcoaceticus, AC54, in vitro, read-out: MIC
[4] = Escherichia coli, NIHJJC2, in vitro, read-out: MIC
[5] = Klebsiella pneumoniae, NCTC9632, in vitro, read-out: MIC
[6] = Morganella morganii, read-out: MIC
[7] = Pseudomonas aeruginosa, ATCC10145, in vitro, read-out: MIC
[8] = Pseudomonas aeruginosa, E2, in vitro, read-out: MIC
[9] = Proteus mirabilis, ATCC29906, in vitro, read-out: MIC
[10] = Staphylococcus aureus, FDA209P, read-out: MIC

Compound | MIC (A.calcoaceticus Ac-54; [3]) [µg/mL] | MIC (E.coli NIHJ JC-2; [4]) [µg/mL] | MIC (E.facalis ATCC-21212; read-out: MIC) [µg/mL] | MIC (K.pneumoniae NCTC-9632; [5]) [µg/mL] | MIC (M.morganii IID Kono; [6]) [µg/mL] | MIC (P.aeruginosa ATCC-10145; [7]) [µg/mL] | MIC (P.aeruginosa E-2; [8]) [µg/mL] | MIC (P.mirabilis ATCC-29906; [9]) [µg/mL] | MIC (S.aureus FDA209P; [10]) [µg/mL] | MIC (S.marcoscons IFO-12648; read-out: MIC) [µg/mL] | further results
CC1Cc2c(N3CCN(C)CC3)c(F)cc3c(=O)c(C(=O)O)cn1c23 (single isomer, unassigned) [Example 7 hydrochloride] |  |  |  |  |  |  |  |  |  |  | solubility [1, 2]: 230 mg/mL
CC1CN(c2c(F)cc3c(=O)c(C(=O)O)cn4c3c2CC4C)CCN1.Cl (single isomer, unassigned; (-)) [Reference Example 2, (-)-8-fluoro-2-methyl-9-(3-methyl-1-piperazinyl)-6-oxo-1,2-dihydro-6H-pyrrolo[3,2,1-ij]quinoline-5-carboxylic acid hydrochloride, reference compound] |  |  |  |  |  |  |  |  |  |  | Ratio of dissolution to water: 167 mg/mL
CC1Cc2c(N3CCC(N)C3)c(F)cc3c(=O)c(C(=O)O)cn1c23 (single isomer, unassigned; (+)) [Example 17, (+)-8-fluoro-2-methyl-9-(3-amino-1-pyrrolidinyl)-6-oxo-1,2-dihydro-6H-pyrrolo[3,2,1-ij]quinoline-5-carboxylic acid] | 0.39 (≈ 1.18 µM) | 0.05 (≈ 0.151 µM) | 3.13 (≈ 9.45 µM) | 0.05 (≈ 0.151 µM) | 0.024 (≈ 0.0724 µM) | 0.39 (≈ 1.18 µM) | 0.39 (≈ 1.18 µM) | 0.1 (≈ 0.302 µM) | 0.2 (≈ 0.604 µM) | 0.1 (≈ 0.302 µM) | 
CCNCC1CCN(c2c(F)cc3c(=O)c(C(=O)O)cn4c3c2CC4C)C1.Cl (single isomer, unassigned; (+)) [Example 18, (+)-8-fluoro-2-methyl-9-[3-(ethylaminomethyl)-1-pyrrolidinyl]-6-oxo-1,2-dihydro-6H-pyrrolo[3,2,1-ij]quinoline-5-carboxylic acid hydrochloride] |  |  |  |  |  |  |  |  |  |  | solubility [1]: 195 mg/mL
CC1CN(c2c(F)cc3c(=O)c(C(=O)O)cn4c3c2CC4C)CC(C)N1.Cl (single isomer, unassigned; (+)) [Example 12, (+)-8-fluoro-2-methyl-9-(3,5-dimethyl-1-piperazinyl)-6-oxo-1,2-dihydro-6H-pyrrolo[3,2,1-ij]quinoline-5-carboxylic acid hydrochloride] |  |  |  |  |  |  |  |  |  |  | solubility [1]: 175 mg/mL
CC1COc2c(N3CCN(C)CC3)c(F)cc3c(=O)c(C(=O)O)cn1c23 (stereo not drawn) [Test Compound G, S-(-)-9-fluoro-3-methyl-10-(4-methyl-1-piperazinyl)-7-oxo-2,3-dihydro-7H-pyrido[1,2,3-de][1,4]benzoxazine-6-carboxylic acid, reference compound] | 0.39 (≈ 1.08 µM) | 0.1 (≈ 0.277 µM) | 3.13 (≈ 8.66 µM) | 0.1 (≈ 0.277 µM) | 0.1 (≈ 0.277 µM) | 3.13 (≈ 8.66 µM) | 1.5 (≈ 4.15 µM) | 0.39 (≈ 1.08 µM) | 0.2 (≈ 0.553 µM) | 0.2 (≈ 0.553 µM) | 
CC1CN(c2c(F)cc3c(=O)c(C(=O)O)cn4c3c2CC4C)CCN1 (single isomer, unassigned; (+)) [Example 20, (+)-8-fluoro-2-methyl-9-(3-methyl-1-piperazinyl)-6-oxo-1,2-dihydro-6H-pyrrolo[3,2,1-ij]quinoline-5-carboxylic acid] |  |  |  |  |  |  |  |  |  |  | solubility [1, 2]: 143 mg/mL
CC(C)NCC1CCN(c2c(F)cc3c(=O)c(C(=O)O)cn4c3c2CC4C)C1 (single isomer, unassigned; (+)) [Example 19, (+)-8-fluoro-2-methyl-9-[3-(isopropylaminomethy 1-pyrrolidyl]-6-oxo-1,2-dihydro-6H-pyrrolo[3,2,1-ij]quinoline-5-carboxylic acid hydrochloride] |  |  |  |  |  |  |  |  |  |  | solubility [1, 2]: 135 mg/mL
CC1CN(c2c(Cl)cc3c(=O)c(C(=O)O)cn4c3c2CC4C)CCN1.Cl (single isomer, unassigned; (+)) [Example 11, (+)-8-chloro-2-methyl-9-(3-methyl-1-piperazinyl)-6-oxo-1,2-dihydro-6H-pyrrolo[3,2,1-ij]quinoline-5-carboxylic acid hydrochloride] | 0.78 | 0.1 | 6.25 | 0.1 | 0.024 | 0.78 | 0.78 | 0.2 | 0.39 | 0.2 | solubility (physchem): 231 mg/mL
CC1Cc2c(N3CCN(C)CC3)c(F)cc3c(=O)c(C(=O)O)cn1c23 (single isomer, unassigned; (-)) [Reference Example 1, (-)-8-fluoro-2-methyl-9-(4-methyl-1-piperazinyl)-6-oxo-1,2-dihydro-6H-pyrrolo[3,2,1-ij]quinoline-5-carboxylic acid, reference compound] |  |  |  |  |  |  |  |  |  |  | MIC (A.calcoaceticus Ac-54; in vitro, listed as F): 3.13 µg/mL (≈ 9.06 µM); MIC (E.coli NIHJ JC-2; in vitro, listed as F): 0.78 µg/mL (≈ 2.26 µM); MIC (E.facalis ATCC-21212; listed as F): 100 µg/mL (≈ 290 µM); MIC (K.pneumoniae NCTC-9632; in vitro, listed as F): 0.78 µg/mL (≈ 2.26 µM); MIC (M.morganii IID Kono; listed as F): 0.78 µg/mL (≈ 2.26 µM); MIC (P.aeruginosa ATCC-10145; in vitro, listed as F): 25 µg/mL (≈ 72.4 µM); MIC (P.aeruginosa E-2; in vitro, listed as F): 12.5 µg/mL (≈ 36.2 µM); MIC (P.mirabilis ATCC-29906; in vitro, listed as F): 3.13 µg/mL (≈ 9.06 µM); MIC (S.aureus FDA209P; listed as F): 3.13 µg/mL (≈ 9.06 µM); MIC (S.marcoscons IFO-12648; listed as F): 0.78 µg/mL (≈ 2.26 µM)
CC1Cc2c(N3CCN(C)CC3)c(F)cc3c(=O)c(C(=O)O)cn1c23 (racemic) [Test Compound E, 8-fluoro-2-methyl-9-(4-methyl-1-piperazinyl)-6-oxo-1,2-dihydro-6H-pyrrolo[3,2,1-ij]quinoline-5-carboxylic acid, reference compound] | 0.2 (≈ 0.579 µM) | 0.1 (≈ 0.29 µM) | 1.56 (≈ 4.52 µM) | 0.1 (≈ 0.29 µM) | 0.1 (≈ 0.29 µM) | 3.13 (≈ 9.06 µM) | 1.56 (≈ 4.52 µM) | 0.39 (≈ 1.13 µM) | 0.2 (≈ 0.579 µM) | 0.1 (≈ 0.29 µM) | 
CC1Cc2c(N3CCN(C)CC3)c(F)cc3c(=O)c(C(=O)O)cn1c23.Cl (racemic) [Reference Example 3, (±)-8-fluoro-2-methyl-9-(4-methyl-1-piperazinyl)-6-oxo-1,2-dihydro-6H-pyrrolo[3,2,1-ij]quinoline-5-carboxylic acid hydrochloride, reference compound] |  |  |  |  |  |  |  |  |  |  | solubility (physchem): 12 mg/mL
CC1CN(c2c(F)cc3c(=O)c(C(=O)O)cn4c3c2CC4C)CCN1.Cl (single isomer, unassigned; (+)) [Example 8, (+)-8-fluoro-2-methyl-9-(3-methyl-1-piperazinyl)-6-oxo-1,2-dihydro-6H-pyrrolo[3,2,1-ij]quinoline-5-carboxylic acid hydrochloride] | 0.39 | 0.05 | 3.13 | 0.05 | 0.012 | 0.39 | 0.39 | 0.1 | 0.2 | 0.1 | Ratio of dissolution to water: 385 mg/mL
CC1Cc2c(N3CCN(C)CC3)c(F)cc3c(=O)c(C(=O)O)cn1c23 (single isomer, unassigned; (+)) [Example 7, (+)-8-fluoro-2-methyl-9-(4-methyl-1-piperazinyl)-6-oxo-1,2-dihydro-6H-pyrrolo[3,2,1-ij]quinoline-5-carboxylic acid] |  |  |  |  |  |  |  |  |  |  | MIC (A.calcoaceticus Ac-54; in vitro, listed as A): 0.1 µg/mL (≈ 0.29 µM); MIC (E.coli NIHJ JC-2; in vitro, listed as A): 0.05 µg/mL (≈ 0.145 µM); MIC (E.facalis ATCC-21212; listed as A): 0.78 µg/mL (≈ 2.26 µM); MIC (K.pneumoniae NCTC-9632; in vitro, listed as A): 0.05 µg/mL (≈ 0.145 µM); MIC (M.morganii IID Kono; listed as A): 0.05 µg/mL (≈ 0.145 µM); MIC (P.aeruginosa ATCC-10145; in vitro, listed as A): 1.56 µg/mL (≈ 4.52 µM); MIC (P.aeruginosa E-2; in vitro, listed as A): 0.78 µg/mL (≈ 2.26 µM); MIC (P.mirabilis ATCC-29906; in vitro, listed as A): 0.2 µg/mL (≈ 0.579 µM); MIC (S.aureus FDA209P; listed as A): 0.1 µg/mL (≈ 0.29 µM); MIC (S.marcoscons IFO-12648; listed as A): 0.05 µg/mL (≈ 0.145 µM)
CC1CN(c2c(F)cc3c(=O)c(C(=O)O)cn4c3c2CC4C)CCN1.Cl (racemic) [Example 10, (±)-8-fluoro-2-methyl-9-(3-methyl-1-piperazinyl)-6-oxo-1,2-dihydro-6H-pyrrolo[3,2,1-ij]quinoline-5-carboxylic acid hydrochloride] |  |  |  |  |  |  |  |  |  |  | solubility (physchem): 152 mg/mL
CC1Cc2c(N3CCC(N)C3)c(F)cc3c(=O)c(C(=O)O)cn1c23.Cl (single isomer, unassigned; (+)) [Example 17 hydrochloride, (+)-8-fluoro-2-methyl-9-(3-amino-1-pyrrolidyl)-6-oxo-1,2-dihydro-6H-pyrrolo[3,2,1-ij]quinoline-5-carboxylic acid hydrochloride] |  |  |  |  |  |  |  |  |  |  | solubility (physchem): 158 mg/mL
